{
  "source": "paper PMC9719519",
  "about": "“Non-classical ferroptosis inhibition by a small molecule targeting PHB2” (Nature Communications, 2022)",
  "experiment_in_all_cases": "biochemical",
  "parameters_in_all_cases": "Eurofins recombinant human kinase profiling, remaining kinase activity as % of control, 10 uM ATP",
  "conditions_in_all_cases": "ATP 10 uM; read-out: %Ctrl@10 μM",
  "key": {"SGK(h)": {"target": "T1, SGK(h) (Homo sapiens, UniProt O00141)", "T1 construct": "gene SGK1", "outline": "(§1)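 Activity measured in a commercial panel of 401 recombinant human protein kinases run as a kinase profiling service.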"}, "AAK1(h)": {"target": "AAK1(h) (Homo sapiens, UniProt Q2M2I8)", "outline": "as §1"}, "CDK14/cyclinY(h)": {"target": "CDK14/cyclinY(h) (Homo sapiens, UniProt O94921)", "outline": "as §1"}, "TSSK3(h)": {"target": "TSSK3(h) (Homo sapiens, UniProt Q96PN8)", "sequence (Q96PN8 whole entry)": "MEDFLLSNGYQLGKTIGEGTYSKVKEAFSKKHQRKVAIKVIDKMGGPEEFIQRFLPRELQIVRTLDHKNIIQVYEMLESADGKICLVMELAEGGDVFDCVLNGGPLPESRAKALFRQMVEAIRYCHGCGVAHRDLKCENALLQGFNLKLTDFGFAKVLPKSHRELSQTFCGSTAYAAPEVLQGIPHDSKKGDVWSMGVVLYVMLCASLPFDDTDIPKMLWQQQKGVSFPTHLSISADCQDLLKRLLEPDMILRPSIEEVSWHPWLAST", "outline": "as §1"}, "eEF-2K(h)": {"target": "T2, eEF-2K(h) (Homo sapiens, UniProt O00418)", "T2 construct": "gene EEF2K", "T2 sequence (O00418 whole entry)": "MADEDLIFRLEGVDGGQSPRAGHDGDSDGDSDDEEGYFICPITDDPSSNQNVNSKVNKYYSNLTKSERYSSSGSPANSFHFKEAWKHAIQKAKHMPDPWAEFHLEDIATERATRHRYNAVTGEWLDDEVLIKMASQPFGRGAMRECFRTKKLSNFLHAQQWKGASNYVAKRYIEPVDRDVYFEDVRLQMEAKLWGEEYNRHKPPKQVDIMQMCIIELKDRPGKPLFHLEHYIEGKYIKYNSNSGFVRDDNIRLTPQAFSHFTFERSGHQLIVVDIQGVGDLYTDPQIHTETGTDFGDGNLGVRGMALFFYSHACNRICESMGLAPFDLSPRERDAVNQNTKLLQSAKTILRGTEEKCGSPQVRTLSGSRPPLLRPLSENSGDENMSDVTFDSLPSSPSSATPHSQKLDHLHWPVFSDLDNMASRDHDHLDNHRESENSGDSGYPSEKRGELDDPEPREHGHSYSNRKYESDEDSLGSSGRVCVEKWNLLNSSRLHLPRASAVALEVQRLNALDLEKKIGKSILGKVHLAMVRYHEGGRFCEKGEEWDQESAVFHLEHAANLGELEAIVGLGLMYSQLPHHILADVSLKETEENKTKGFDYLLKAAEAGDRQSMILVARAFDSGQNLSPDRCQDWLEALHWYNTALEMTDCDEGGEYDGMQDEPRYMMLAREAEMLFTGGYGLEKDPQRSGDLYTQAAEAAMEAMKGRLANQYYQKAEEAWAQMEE", "outline": "as §1"}, "MAPK2(h)": {"target": "T3, MAPK2(h) (Homo sapiens, UniProt P28482)", "T3 construct": "gene MAPK1", "T3 sequence (P28482 whole entry)": "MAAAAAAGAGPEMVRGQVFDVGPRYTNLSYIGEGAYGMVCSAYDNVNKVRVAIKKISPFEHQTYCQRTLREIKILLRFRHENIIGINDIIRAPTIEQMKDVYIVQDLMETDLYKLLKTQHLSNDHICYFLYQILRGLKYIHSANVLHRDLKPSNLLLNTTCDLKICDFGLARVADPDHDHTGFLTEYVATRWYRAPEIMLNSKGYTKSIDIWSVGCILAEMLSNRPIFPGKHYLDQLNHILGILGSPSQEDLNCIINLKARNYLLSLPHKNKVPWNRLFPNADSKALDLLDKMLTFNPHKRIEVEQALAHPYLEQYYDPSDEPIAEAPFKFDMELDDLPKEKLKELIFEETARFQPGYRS", "outline": "as §1"}, "GSK3β(h)": {"target": "T4, GSK3β(h) (Homo sapiens, UniProt P49841)", "T4 construct": "gene GSK3B", "T4 sequence (P49841 whole entry)": "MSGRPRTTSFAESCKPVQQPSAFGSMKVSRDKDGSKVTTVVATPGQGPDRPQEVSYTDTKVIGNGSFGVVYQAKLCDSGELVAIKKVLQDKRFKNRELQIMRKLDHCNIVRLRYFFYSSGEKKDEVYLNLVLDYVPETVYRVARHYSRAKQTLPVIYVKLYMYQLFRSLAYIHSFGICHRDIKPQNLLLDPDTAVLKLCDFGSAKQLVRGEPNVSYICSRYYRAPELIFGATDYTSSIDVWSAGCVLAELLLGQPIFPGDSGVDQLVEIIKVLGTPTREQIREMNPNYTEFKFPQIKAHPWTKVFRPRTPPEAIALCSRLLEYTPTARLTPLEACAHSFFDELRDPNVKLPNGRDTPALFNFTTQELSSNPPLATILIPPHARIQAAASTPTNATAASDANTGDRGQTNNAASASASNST", "outline": "as §1"}, "TGFBR2(h)": {"target": "TGFBR2(h) (Homo sapiens, UniProt P37173)", "sequence (P37173 whole entry)": "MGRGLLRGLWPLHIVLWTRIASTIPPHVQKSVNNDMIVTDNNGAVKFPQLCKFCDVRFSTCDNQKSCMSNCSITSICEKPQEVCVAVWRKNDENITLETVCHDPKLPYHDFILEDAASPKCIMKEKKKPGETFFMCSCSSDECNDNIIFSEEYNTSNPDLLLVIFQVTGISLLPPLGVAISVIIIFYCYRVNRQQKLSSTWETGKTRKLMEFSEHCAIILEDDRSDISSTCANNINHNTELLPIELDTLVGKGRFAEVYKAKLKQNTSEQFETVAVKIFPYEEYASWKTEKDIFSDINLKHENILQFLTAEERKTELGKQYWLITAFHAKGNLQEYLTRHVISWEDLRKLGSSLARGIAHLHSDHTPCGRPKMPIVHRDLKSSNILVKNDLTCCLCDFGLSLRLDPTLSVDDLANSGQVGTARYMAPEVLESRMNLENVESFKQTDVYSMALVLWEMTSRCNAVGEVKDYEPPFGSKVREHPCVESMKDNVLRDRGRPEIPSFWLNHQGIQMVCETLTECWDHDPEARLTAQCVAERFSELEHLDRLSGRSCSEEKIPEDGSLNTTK", "outline": "as §1"}, "Cdc7/cyclinB1(h)": {"target": "Cdc7/cyclinB1(h) (Homo sapiens, UniProt O00311)", "outline": "as §1"}, "Rsk2(h)": {"target": "T5, Rsk2(h) (Homo sapiens, UniProt P51812)", "T5 construct": "gene RPS6KA3", "outline": "as §1"}, "CDK16/cyclinY(h)": {"target": "CDK16/cyclinY(h) (Homo sapiens, UniProt Q00536)", "outline": "as §1"}, "MAPK1(h)": {"target": "T6, MAPK1(h) (Homo sapiens, UniProt P27361)", "T6 construct": "gene MAPK3", "T6 sequence (P27361 whole entry)": "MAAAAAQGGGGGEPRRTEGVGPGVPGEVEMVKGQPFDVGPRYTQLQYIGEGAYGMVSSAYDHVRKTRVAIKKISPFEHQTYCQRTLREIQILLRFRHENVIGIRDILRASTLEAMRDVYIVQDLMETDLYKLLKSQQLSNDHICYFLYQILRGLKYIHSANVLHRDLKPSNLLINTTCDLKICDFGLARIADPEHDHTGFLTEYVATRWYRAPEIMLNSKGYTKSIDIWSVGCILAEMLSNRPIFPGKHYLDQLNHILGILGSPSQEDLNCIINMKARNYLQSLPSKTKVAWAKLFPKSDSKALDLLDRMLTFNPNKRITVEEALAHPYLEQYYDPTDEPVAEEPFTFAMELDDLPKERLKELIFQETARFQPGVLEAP", "outline": "as §1"}, "HPK1(h)": {"target": "T7, HPK1(h) (Homo sapiens, UniProt Q92918)", "T7 construct": "gene MAP4K1", "T7 sequence (Q92918 whole entry)": "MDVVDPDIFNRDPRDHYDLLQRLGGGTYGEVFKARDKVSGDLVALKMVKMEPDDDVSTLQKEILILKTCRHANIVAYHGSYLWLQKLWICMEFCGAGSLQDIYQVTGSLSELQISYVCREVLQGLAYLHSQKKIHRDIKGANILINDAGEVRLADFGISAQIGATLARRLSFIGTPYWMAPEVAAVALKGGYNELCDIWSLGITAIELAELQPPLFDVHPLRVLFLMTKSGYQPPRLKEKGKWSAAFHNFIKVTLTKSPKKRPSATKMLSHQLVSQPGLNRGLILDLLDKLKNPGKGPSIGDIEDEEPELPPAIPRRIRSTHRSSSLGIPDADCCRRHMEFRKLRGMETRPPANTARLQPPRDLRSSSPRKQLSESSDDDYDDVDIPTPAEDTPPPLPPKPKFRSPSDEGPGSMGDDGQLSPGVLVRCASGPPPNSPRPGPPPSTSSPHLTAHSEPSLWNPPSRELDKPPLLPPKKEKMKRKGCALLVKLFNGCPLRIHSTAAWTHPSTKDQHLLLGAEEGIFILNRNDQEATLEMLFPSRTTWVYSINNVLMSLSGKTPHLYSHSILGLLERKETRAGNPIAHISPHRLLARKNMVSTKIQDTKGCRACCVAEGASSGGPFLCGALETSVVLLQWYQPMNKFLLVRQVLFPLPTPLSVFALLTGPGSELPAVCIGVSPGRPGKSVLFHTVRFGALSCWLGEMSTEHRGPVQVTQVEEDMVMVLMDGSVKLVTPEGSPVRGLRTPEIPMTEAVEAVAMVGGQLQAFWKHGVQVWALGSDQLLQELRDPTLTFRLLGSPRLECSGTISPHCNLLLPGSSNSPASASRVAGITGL", "outline": "as §1"}, "TTK(h)": {"target": "TTK(h) (Homo sapiens, UniProt P33981)", "outline": "as §1"}, "SAPK2a(h)": {"target": "T8, SAPK2a(h) (Homo sapiens, UniProt Q16539)", "T8 construct": "gene MAPK14", "T8 sequence (Q16539 whole entry)": "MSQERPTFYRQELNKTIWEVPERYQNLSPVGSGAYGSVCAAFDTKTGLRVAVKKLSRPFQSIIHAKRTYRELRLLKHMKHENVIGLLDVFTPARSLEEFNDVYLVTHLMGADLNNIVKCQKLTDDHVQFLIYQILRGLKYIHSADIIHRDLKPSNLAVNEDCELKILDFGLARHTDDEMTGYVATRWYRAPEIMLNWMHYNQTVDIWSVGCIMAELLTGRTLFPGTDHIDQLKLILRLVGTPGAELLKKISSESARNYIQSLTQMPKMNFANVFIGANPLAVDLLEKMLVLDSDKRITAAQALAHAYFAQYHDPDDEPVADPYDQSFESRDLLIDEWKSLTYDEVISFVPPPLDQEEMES", "outline": "as §1"}, "Syk(h)": {"target": "Syk(h) (Homo sapiens, UniProt P43405)", "outline": "as §1"}, "PKD3(h)": {"target": "T9, PKD3(h) (Homo sapiens, UniProt O94806)", "T9 construct": "gene PRKD3", "outline": "as §1"}, "IRE1(h)": {"target": "T10, IRE1(h) (Homo sapiens, UniProt O75460)", "T10 construct": "gene ERN1", "outline": "as §1"}, "PAK5(h)": {"target": "PAK5(h) (Homo sapiens, UniProt Q9P286)", "outline": "as §1"}, "STK25(h)": {"target": "STK25(h) (Homo sapiens, UniProt O00506)", "outline": "as §1"}, "DRAK1(h)": {"target": "T11, DRAK1(h) (Homo sapiens, UniProt Q9UEE5)", "T11 construct": "gene STK17A", "T11 sequence (Q9UEE5 whole entry)": "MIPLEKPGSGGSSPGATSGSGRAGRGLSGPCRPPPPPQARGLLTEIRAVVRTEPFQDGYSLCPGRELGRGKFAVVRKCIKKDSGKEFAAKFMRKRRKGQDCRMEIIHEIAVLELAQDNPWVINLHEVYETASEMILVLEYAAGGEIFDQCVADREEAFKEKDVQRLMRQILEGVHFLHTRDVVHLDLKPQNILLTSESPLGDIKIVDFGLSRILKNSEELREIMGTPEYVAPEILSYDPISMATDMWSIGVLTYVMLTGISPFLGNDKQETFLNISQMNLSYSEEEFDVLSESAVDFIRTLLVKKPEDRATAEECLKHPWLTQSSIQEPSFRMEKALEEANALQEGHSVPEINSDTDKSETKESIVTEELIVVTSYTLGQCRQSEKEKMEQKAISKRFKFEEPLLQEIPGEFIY", "outline": "as §1"}, "DYRK1B(h)": {"target": "DYRK1B(h) (Homo sapiens, UniProt Q9Y463)", "sequence (Q9Y463 whole entry)": "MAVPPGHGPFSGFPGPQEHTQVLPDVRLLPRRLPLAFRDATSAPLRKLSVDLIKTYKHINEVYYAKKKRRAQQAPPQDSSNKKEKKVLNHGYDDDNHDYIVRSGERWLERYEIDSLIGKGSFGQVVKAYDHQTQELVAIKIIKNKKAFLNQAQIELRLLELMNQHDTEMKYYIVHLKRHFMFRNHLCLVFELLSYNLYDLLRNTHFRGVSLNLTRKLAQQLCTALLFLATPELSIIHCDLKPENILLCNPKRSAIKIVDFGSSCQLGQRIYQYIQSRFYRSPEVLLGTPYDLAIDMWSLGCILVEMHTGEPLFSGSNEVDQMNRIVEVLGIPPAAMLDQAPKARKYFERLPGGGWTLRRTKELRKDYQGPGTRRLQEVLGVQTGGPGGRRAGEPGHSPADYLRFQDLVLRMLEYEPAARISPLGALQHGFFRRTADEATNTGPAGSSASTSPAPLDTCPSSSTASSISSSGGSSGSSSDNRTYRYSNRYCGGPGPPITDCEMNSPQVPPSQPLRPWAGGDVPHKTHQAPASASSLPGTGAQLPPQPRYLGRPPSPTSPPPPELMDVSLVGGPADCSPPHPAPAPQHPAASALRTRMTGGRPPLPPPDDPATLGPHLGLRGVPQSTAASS", "outline": "as §1"}, "Aurora-B(h)": {"target": "T12, Aurora-B(h) (Homo sapiens, UniProt Q96GD4)", "T12 construct": "gene AURKB", "outline": "as §1"}},
  "data": [
    {"molecule": "C1=C(c2nc(-c3cnn(C4CCNCC4)c3)cn3cc(-c4ccccc4)nc23)CCOC1", "note": "[YL-939]", "values": [
      {"measurement": "remaining activity at 10 µM", "setting": "SGK(h)", "value": 72, "unit": "%"},
      {"measurement": "remaining activity at 10 µM", "setting": "AAK1(h)", "value": 68, "unit": "%"},
      {"measurement": "remaining activity at 10 µM", "setting": "CDK14/cyclinY(h)", "value": 111, "unit": "%"},
      {"measurement": "remaining activity at 10 µM", "setting": "TSSK3(h)", "value": 87, "unit": "%"},
      {"measurement": "remaining activity at 10 µM", "setting": "eEF-2K(h)", "value": 93, "unit": "%"},
      {"measurement": "remaining activity at 10 µM", "setting": "MAPK2(h)", "value": 88, "unit": "%"},
      {"measurement": "remaining activity at 10 µM", "setting": "GSK3β(h)", "value": 96, "unit": "%"},
      {"measurement": "remaining activity at 10 µM", "setting": "TGFBR2(h)", "value": 97, "unit": "%"},
      {"measurement": "remaining activity at 10 µM", "setting": "Cdc7/cyclinB1(h)", "value": 104, "unit": "%"},
      {"measurement": "remaining activity at 10 µM", "setting": "Rsk2(h)", "value": 81, "unit": "%"},
      {"measurement": "remaining activity at 10 µM", "setting": "CDK16/cyclinY(h)", "value": 80, "unit": "%"},
      {"measurement": "remaining activity at 10 µM", "setting": "MAPK1(h)", "value": 103, "unit": "%"},
      {"measurement": "remaining activity at 10 µM", "setting": "HPK1(h)", "value": 88, "unit": "%"},
      {"measurement": "remaining activity at 10 µM", "setting": "TTK(h)", "value": 102, "unit": "%"},
      {"measurement": "remaining activity at 10 µM", "setting": "SAPK2a(h)", "value": 103, "unit": "%"},
      {"measurement": "remaining activity at 10 µM", "setting": "Syk(h)", "value": 62, "unit": "%"},
      {"measurement": "remaining activity at 10 µM", "setting": "PKD3(h)", "value": 87, "unit": "%"},
      {"measurement": "remaining activity at 10 µM", "setting": "IRE1(h)", "value": 94, "unit": "%"},
      {"measurement": "remaining activity at 10 µM", "setting": "PAK5(h)", "value": 95, "unit": "%"},
      {"measurement": "remaining activity at 10 µM", "setting": "STK25(h)", "value": 82, "unit": "%"},
      {"measurement": "remaining activity at 10 µM", "setting": "DRAK1(h)", "value": 60, "unit": "%"},
      {"measurement": "remaining activity at 10 µM", "setting": "DYRK1B(h)", "value": 97, "unit": "%"},
      {"measurement": "remaining activity at 10 µM", "setting": "Aurora-B(h)", "value": 89, "unit": "%"}
    ]}
  ]
}
